In patent publication US10786484B2, “Mono- or di-substituted indole derivatives as dengue viral replication inhibitors” (Janssen Pharmaceuticals, Inc., priority 2015, dated 2020) one finds EC50 and CC50 data, which are given here for four compounds.

Data set [1] relates to DENV-2 16681 strain labeled with eGFP. As to the kind of experiment: DENV-2 antiviral assay (eGFP fluorescence read-out in Vero cells). Type of data set: cell-based, Dengue virus. The conditions noted are these: DENV-2 16681 eGFP, MOI 0.5, 3 days. The method in brief:
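Vero cells (2500/well) pre-plated with compound (9-step 5-fold series), infected next day with eGFP-labeled DENV-2 16681 at MOI 0.5 in MEM with 2% FCS; 3 days at 37° C. eGFP fluorescence read at 488 nm; inhibition versus virus and cell controls, EC50 by linear interpolation.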

Another data set concerns DENV-1 strain TC974#666. As to the kind of experiment: Tetravalent RT-qPCR assay Protocol A, serotype 1. Type of data set: cell-based. The conditions noted are these: Dengue virus, DENV1, 72 h; RT-qPCR serotype 1 TC974#666, Vero cells, day 3. How it is done:
(§1) The antiviral activity of the compounds of the invention was tested against DENV-1 strain TC974#666 (NCPV), DENV-2 strain 16681, DENV-3 strain H87 (NCPV) and DENV-4 strains H241 (NCPV) and EDEN (SG/06K2270DK1/2005; GenBank accession number QG398256) in a RT-qPCR assay. Therefore, Vero cells were infected with either DENV-1, or -2, or -3, or -4 in the presence or absence of test compounds. At day 3 post-infection, the cells were lysed and cell lysates were used to prepare cDNA of both a viral target (the 3′UTR of DENV; Table 2) and a cellular reference gene (β-actin, Table 2). Subsequently, a duplex real time PCR was performed on a Lightcycler480 instrument. The generated Cp value is inversely proportional to the amount of RNA expression of these targets. Inhibition of DENV replication by a test compound results in a shift of Cp's for the 3′UTR gene. On the other hand, if a test compound is toxic to the cells, a similar effect on β-actin expression will be observed. The comparative ΔΔCp method is used to calculate EC50, which is based on the relative gene expression of the target gene (3′UTR) normalized with the cellular housekeeping gene (β-actin). In addition, CC50 values are determined based on the Cp values acquired for the housekeeping gene β-actin.
(§2) The culture medium consisted of minimal essential medium supplemented with 2% of heat-inactivated fetal calf serum, 0.04% gentamycin (50 mg/mL) and 2 mM of L-glutamine. Vero cells, obtained from ECACC, were suspended in culture medium and 75 μL/well was added in 96-well plates (10000 cells/well), which already contain the antiviral compounds. […] In addition, each plate contains wells which are assigned as virus controls (containing cells and virus in the absence of compound) and cell controls (containing cells in the absence of virus and compound). Once the cells were added in the plates, the plates were incubated in a fully humidified incubator (37° C., 5% CO2) until the next day. Dengue viruses serotype-1, 2, 3 and 4 were diluted in order to obtain a Cp of ˜22-24 in the assay. Therefore, 25 μL of virus suspension, was added to all the wells containing test compound and to the wells assigned as virus control. In parallel, 25 μL of culture medium was added to the cell controls. Next, the plates were incubated for 3 days in a fully humidified incubator (37° C., 5% CO2). After 3 days, the supernatant was removed from the wells and the cells were washed twice with ice-cold PBS (−100 μL). The cell pellets within the 96-well plates were stored at −80° C. for at least 1 day. Next, RNA was extracted using the Cells-to-CT™ lysis kit, according to the manufacturer's guideline (Life Technologies). The cell lysates can be stored at −80° C. or immediately used in the reverse transcription step.
(§3) In preparation of the reverse transcription step, mix A (table 3A) was prepared and 7.57 μL/well was dispensed in a 96-well plate. After addition of 5 μL of the cell lysates, a five minute denaturation step at 75° C. was performed (table 3B). Afterwards, 7.43 μL of mix B was added (table 3C) and the reverse transcription step was initiated (table 3D) to generate cDNA.
(§4) Finally, a RT-qPCR mix was prepared, mix C (table 4A), and 22.02 μL/well was dispensed in 96-well LightCycler qPCR plates to which 3 μL of cDNA was added and the qPCR was performed according to the conditions in table 4B on a LightCycler 480.
(§5) Using the LightCycler software and an in-house LIMS system, dose response curves for each compound were calculated and the half maximal effective concentration (EC50) and the half maximal cytotoxic concentration (CC50) were determined (Tables 5-8).
For orientation: Quantitative PCR measures a nucleic acid by following its amplification.

The next data set relates to DENV-2 strain 16681. As to the kind of experiment: Tetravalent RT-qPCR assay Protocol A, serotype 2. The data set is classed as cell-based. The conditions noted are these: Dengue virus, DENV2, 72 h; RT-qPCR serotype 2 16681, Vero cells, day 3. How it is done: as §1, §2, §3, §4, §5
In a further data set the test system is DENV-3 strain H87. As to the kind of experiment: Tetravalent RT-qPCR assay Protocol A, serotype 3. The data set is classed as cell-based. The conditions noted are these: Dengue virus, DENV3, 72 h; RT-qPCR serotype 3 H87, Vero cells, day 3. How it is done:
as §1, §2, §3, §4, §5

A further data set has as its system DENV-4 strain H241. As to the kind of experiment: Tetravalent RT-qPCR assay Protocol A, serotype 4 H241. The conditions noted are these: Dengue virus, DENV4, 72 h; RT-qPCR serotype 4 H241, Vero cells, day 3. The data set is classed as cell-based. The procedure: as §1, §2, §3, §4, §5
Data set [2] has as its system DENV-4 strain EDEN (SG/06K2270DK1/2005). As to the kind of experiment: Tetravalent RT-qPCR assay Protocol A, serotype 4 EDEN. Type of data set: cell-based. The conditions noted are these: Dengue virus, DENV4, 72 h; RT-qPCR serotype 4 EDEN, Vero cells, day 3. How it is done: as §1, §2, §3, §4, §5
A further data set is described as follows: in vitro. Type of data set: cell-based. The conditions noted are these: African green monkey, CC50. The procedure:
as §1, §2, §5

Data set [3] concerns Vero cells. The conditions noted are these: African green monkey.
Data set [4] relates to Vero cells. As to the kind of experiment: in vitro. Type of data set: cell-based. The conditions noted are these: African green monkey, 3 days. How it is done: as §1, §2, §5

pEC50: −log10 of the molar value. Where two headings read alike, the source gives them in different places. Bounds are passed on as bounds.

Usually pEC50 stands for the EC50 on a negative log10 scale, so that one unit is a factor of ten. One may read the CC50 as the concentration that lowers cell viability or growth by half. For the compound `COc1cc(NC(C(=O)c2c[nH]c3c(C)c(F)ccc23)c2ccc(F)cc2OCCO)cc(S(C)(=O)=O)c1` (single isomer, unassigned) [Compound 3A, 2-(4-fluoro-2-(2-hydroxyethoxy)phenyl)-1-(6-fluoro-7-methyl-1H-indol-3-yl)-2-((3-methoxy-5-(methylsulfonyl)phenyl)amino)ethanone], the pEC50 in [1] is 9.40; with DENV-1 strain TC974#666, 8.48; in the data set with DENV-2 strain 16681, 9.37; with DENV-3 strain H87, 7.35; in the data set on DENV-4 strain H241, 6.72; in [2], 8.29. Moreover, the CC50 at 3 days in “in vitro” was more than 2500 nM. Moreover, the midpoint of cytotoxicity in the data set on Vero cells [3], the CC50, lay at 4000 nM.

For `COc1cc(NC(C(=O)c2c[nH]c3c(C)c(Cl)ccc23)c2ccc(F)cc2OCCO)cc(S(C)(=O)=O)c1` (single isomer, unassigned) [Compound 4B, 1-(6-chloro-7-methyl-1H-indol-3-yl)-2-(4-fluoro-2-(2-hydroxyethoxy)phenyl)-2-((3-methoxy-5-(methylsulfonyl)phenyl)amino)ethanone], the pEC50 was 9.70 in [1]; 8.48 in the data set on DENV-1 strain TC974#666; 9.68 in the data set on DENV-2 strain 16681; 7.26 with DENV-3 strain H87; 6.85 in the data set with DENV-4 strain H241; 8.49 in data set [2]. Moreover, in “in vitro”, the CC50 at 3 days is more than 2500 nM. In addition, in the data set on Vero cells [3], the midpoint of cytotoxicity, the CC50, lay at 3800 nM.

As to `COc1cc(NC(C(=O)c2c[nH]c3cc(F)c(F)cc23)c2ccc(F)cc2OCCO)cc(S(C)(=O)=O)c1` (single isomer, unassigned) [Compound 5A, 1-(5,6-difluoro-1H-indol-3-yl)-2-(4-fluoro-2-(2-hydroxyethoxy)phenyl)-2-((3-methoxy-5-(methylsulfonyl)phenyl)-amino)ethanone], the pEC50 in data set [1] is 9.29; with DENV-1 strain TC974#666 it was 8.39; in the data set on DENV-2 strain 16681, 9.15; in the data set on DENV-3 strain H87 it was 7.21; in the data set on DENV-4 strain H241 it was 6.74; in [2], 8.43. For the same compound, the CC50 at 3 days in “in vitro” is more than 2500 nM. This compound gave a CC50 in the data set with Vero cells [3] of 3400 nM.

As to `COc1cc(NC(C(=O)c2c[nH]c3cc(OC)c(OC(F)(F)F)cc23)c2ccc(F)cc2OCCO)cc(S(C)(=O)=O)c1` (single isomer, unassigned) [Compound 11B, 2-(4-fluoro-2-(2-hydroxyethoxy)phenyl)-2-((3-methoxy-5-(methyl-sulfonyl)phenyl)amino)-1-(6-methoxy-5-(trifluoromethoxy)-1H-indol-3-yl)ethanone], the pEC50 in [1] is 9.70; in the data set on DENV-1 strain TC974#666, 9.22; with DENV-2 strain 16681, 9.85; in the data set on DENV-3 strain H87, 8.14; with DENV-4 strain H241, 7.47. In the data set “in vitro”, this compound gave a CC50 at 3 days of more than 2500 nM. For the same compound, the CC50 is more than 2500 nM in the data set on Vero cells [4] and 2400 nM in the data set with Vero cells [3].
